pIC50: −log10 of the molar value. Several values for one entry are separate records, joined by “and”; a condition that tells them apart may be missing. Identical values can stand only once.
Each compound was assayed against T1, NS3 (West Nile virus, UniProt K4FQI5) (assay: Functional biochemical assay to identify treatments for viral infectious disease that targets West Nile NS2B-NS3 protease. Utilizing a direct enzyme activity measurement method, reading the fluorescence intensity is used to characterize the relative potency of inhibitors as IC50.).
T1 sequence (K4FQI5 whole entry): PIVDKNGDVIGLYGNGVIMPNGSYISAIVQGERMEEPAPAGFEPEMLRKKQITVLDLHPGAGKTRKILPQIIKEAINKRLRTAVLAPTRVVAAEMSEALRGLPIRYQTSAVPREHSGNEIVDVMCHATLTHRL
Design: species or system NY-99

**Q.** Cc1ncc(-c2cc(F)cc(C(=O)Nc3ccc4c(c3)CNC4)c2)s1 was tested. Which pIC50 did it give?
**A.** 5.64

**Q.** How did the pIC50 turn out when O=C(Nc1ccc2c(c1)CNC2)c1cc(F)cc2[nH]ncc12 was run?
**A.** 5.85

**Q.** With OCC#C[C@H](Nc1ccc2c(c1)CNC2)c1cc(Cl)cc2[nH]ncc12 as the compound, how does the pIC50 read?
**A.** 4.65

**Q.** O=C(Nc1ccc2c(c1)CNC2)c1cc(F)cc2c1CCNC2 was tested. Which pIC50 did it give?
**A.** 5.87

**Q.** CCOC(=O)[C@H](Nc1ccc2c(c1)CNC2)c1cc(Cl)cc(C2CC2)c1 was tested. Which pIC50 did it give?
**A.** 6.07

**Q.** With O=C1Cc2c(cccc2C(=O)Nc2ccc3c(c2)CNCCC3)N1 as the compound, how does the pIC50 read?
**A.** 5.67

**Q.** How did the pIC50 turn out when O=C(Nc1ccc2c(c1)CNC2)c1cccc2c1[C@]1(CCNC1)C(=O)N2 was run?
**A.** 5.79

**Q.** With O=C(Nc1ccc2c(c1)CNC2)c1cc(Br)cc2[nH]c(-c3ccccc3)nc12 as the compound, how does the pIC50 read?
**A.** 4.94

**Q.** How did the pIC50 turn out when O=C(Nc1ccccc1)Oc1ccccc1 [PHENYL PHENYLCARBAMATE] was run?
**A.** < 4.00

**Q.** How did the pIC50 turn out when CCOCC1(c2nc3c(C(=O)Nc4ccc5c(c4)CNC5)cc(F)cc3[nH]2)CC1 was run?
**A.** 5.00

**Q.** With O=C(Nc1ccc2c(c1)CN[C@H]2CO)c1cc(F)cc2[nH]ncc12 as the compound, how does the pIC50 read?
**A.** 5.34

**Q.** CO[C@H]1C[C@H](n2cc3c(C(=O)Nc4ccc5c(c4)CNC5)cc(Cl)cc3n2)C1 was tested. Which pIC50 did it give?
**A.** 4.86

**Q.** O=C(NC1CCOCC1)[C@H](Nc1ccc2c(c1)CNC2)c1cc(Cl)cc2[nH]ncc12 was tested. Which pIC50 did it give?
**A.** 6.94

**Q.** How did the pIC50 turn out when Cn1cc2c(C(=O)Nc3ccc4c(c3)CNC4)cc(F)cc2n1 was run?
**A.** 5.13

**Q.** How did the pIC50 turn out when O=C(Nc1ccc2c(c1)CNC2)c1cc(Cl)cc2[nH]c(-c3nc4c(s3)CCC4)nc12 was run?
**A.** 4.40

**Q.** With O=C(Nc1cc2c(c(C3=CC[C@H](O)CC3)c1)CNC2)c1cc(Cl)cc2[nH]ncc12 as the compound, how does the pIC50 read?
**A.** 5.42

**Q.** With N=C(N)NCCC[C@H](NC(=O)[C@H](Cc1ccc(CN)cc1)NC(=O)c1ccccc1)B(O)O as the compound, how does the pIC50 read?
**A.** 7.19 and 6.66

**Q.** With N#C[C@H](Nc1ccc2c(c1)CNC2)c1cc(Cl)cc2[nH]ncc12 as the compound, how does the pIC50 read?
**A.** 4.70

**Q.** How did the pIC50 turn out when CCc1nc2c(C(=O)Nc3ccc4c(c3)CNC4)cc(Br)cc2[nH]1 was run?
**A.** 4.25

**Q.** With COCCCNC(=O)[C@H](Nc1ccc2c(c1)CNC2)c1cc(Cl)cc(C2CC2)c1 as the compound, how does the pIC50 read?
**A.** 6.23

**Q.** Clc1cc(CNc2ccc3c(c2)CNC3)c2cn[nH]c2c1 was tested. Which pIC50 did it give?
**A.** 4.34

**Q.** How did the pIC50 turn out when CO[C@H](C)Cn1cc2c(C(=O)Nc3ccc4c(c3)CNC4)cc(Cl)cc2n1 was run?
**A.** 4.70

**Q.** How did the pIC50 turn out when O=C(Nc1ccc2c(c1)CN[C@H]2C[C@H](O)CO)c1cc(Cl)cc2[nH]ncc12 was run?
**A.** 5.26

**Q.** With N=C(N)NCCc1ccc(OC(=O)Nc2ccccc2)cc1 as the compound, how does the pIC50 read?
**A.** < 4.00

**Q.** With c1ccc2sc(C3CCN(Cc4c[nH]c5ccccc45)CC3)nc2c1 as the compound, how does the pIC50 read?
**A.** < 4.00

**Q.** How did the pIC50 turn out when COc1cc(-c2cc(NC(=O)c3cc(F)cc4[nH]ncc34)cc3c2CNC3)ccn1 was run?
**A.** 6.10

**Q.** With NCc1cccc(NC(=O)C[C@H](NC(=O)OCc2ccccc2)c2ccc(OCc3ccccc3)c(Br)c2)c1 as the compound, how does the pIC50 read?
**A.** 5.06

**Q.** CCn1c(=O)c(N2C[C@H]3CCS(=O)(=O)[C@H]3C2)nc2ccccc21 was tested. Which pIC50 did it give?
**A.** < 4.00

**Q.** How did the pIC50 turn out when O=C(Nc1cc2c(cc1Br)CNC2)c1cc(Cl)cc2[nH]ncc12 was run?
**A.** 5.56

**Q.** O=C(O)CCCc1cc(NC(=O)c2cc(F)cc3[nH]ncc23)cc2c1CNC2 was tested. Which pIC50 did it give?
**A.** 5.82

**Q.** How did the pIC50 turn out when Cn1ccc(-c2cc(F)cc(C(=O)Nc3ccc4c(c3)CNC4)c2)cc1=O was run?
**A.** 5.65

**Q.** With O=C(Nc1cc(Br)c2c(c1)CNC2)c1cc(F)cc2[nH]ncc12 as the compound, how does the pIC50 read?
**A.** 6.04 and 6.02

**Q.** O=C(Nc1cc(Cl)cc([C@H](C#CCO)Nc2cccc(-c3nn[nH]n3)c2)c1)OCc1ccccc1 was tested. Which pIC50 did it give?
**A.** 4.47

**Q.** How did the pIC50 turn out when COc1cc(Cl)cc(C(=O)Nc2ccc3c(c2)CNC3)c1 was run?
**A.** 4.39

**Q.** With O=C(Nc1cnc2c(c1)CNCC2)c1cc(Cl)cc2[nH]ncc12 as the compound, how does the pIC50 read?
**A.** 4.58

**Q.** O=C(O)c1cc(Cl)ccc1NS(=O)(=O)c1ccc(-c2ccc(F)cc2)cc1 was tested. Which pIC50 did it give?
**A.** 4.53

**Q.** With O=C(Nc1ccc2c(c1)CNC2)c1cccc2cn[nH]c12 as the compound, how does the pIC50 read?
**A.** 5.01

**Q.** How did the pIC50 turn out when O=C(Nc1ccc2c(c1)CNC2)c1cc(Br)cc2[nH]ncc12 was run?
**A.** 4.89

**Q.** O=C(Nc1ccc2c(c1)CNC2)c1cc(Cl)cc2nn(C3CCC3)cc12 was tested. Which pIC50 did it give?
**A.** 4.83

**Q.** CNC(=O)[C@H](Nc1ccc2c(c1)CNC2)c1cc(Cl)cc2c1OCC2 was tested. Which pIC50 did it give?
**A.** 5.42

**Q.** With Cn1ncc2c(C(=O)Nc3ccc4c(c3)CNC4)cc(Br)cc21 as the compound, how does the pIC50 read?
**A.** 4.33

**Q.** How did the pIC50 turn out when O=C(Nc1ccc2c(c1)CNC2)c1cc(Cl)ccc1SC1CCCC1 was run?
**A.** < 4.00

**Q.** O=C(NCCCn1ccnc1)[C@H](Nc1ccc2c(c1)CNC2)c1cc(Cl)cc(C2CC2)c1 was tested. Which pIC50 did it give?
**A.** 6.08

**Q.** N#Cc1ccc(-c2nc3c(C(=O)Nc4ccc5c(c4)CNC5)cc(F)cc3[nH]2)cc1 was tested. Which pIC50 did it give?
**A.** 5.54

**Q.** O=C(Nc1ccc2c(c1)CNC2)c1cc(Cl)cc2nn(C3COC3)cc12 was tested. Which pIC50 did it give?
**A.** 4.37

**Q.** How did the pIC50 turn out when O=C(Nc1cc2c(c(C3=CCS(=O)(=O)CC3)c1)CNC2)c1cc(F)cc2[nH]ncc12 was run?
**A.** 6.05

**Q.** How did the pIC50 turn out when O=C1Cc2cc(C(=O)Nc3ccc4c(c3)CNC4)ccc2N1 was run?
**A.** 4.78

**Q.** How did the pIC50 turn out when CSCCNC(=O)[C@H](Nc1ccc2c(c1)CNC2)c1cc(Cl)cc(C2CC2)c1 was run?
**A.** 6.29

**Q.** How did the pIC50 turn out when CCc1cnccc1-c1nc2c(C(=O)Nc3ccc4c(c3)CNC4)cc(Cl)cc2[nH]1 was run?
**A.** < 4.00

**Q.** CS(=O)(=O)N1CC[C@]2(C1)C(=O)Nc1cccc(C(=O)Nc3ccc4c(c3)CNC4)c12 was tested. Which pIC50 did it give?
**A.** 5.20

**Q.** NCc1cc(Cl)cc(C(=O)Nc2ccc3c(c2)CNC3)c1 was tested. Which pIC50 did it give?
**A.** 5.00

**Q.** How did the pIC50 turn out when O=C(Nc1ccc2c(c1)CNC2)c1cc(Cl)cc2nn(C3CCOCC3)cc12 was run?
**A.** 4.85

**Q.** With O=C(Nc1cc(Cl)cc(C(=O)Nc2cccc([C@H]3C[C@H]3C(=O)O)c2)c1)OCc1ccccc1 as the compound, how does the pIC50 read?
**A.** 4.09

**Q.** How did the pIC50 turn out when O=C(Nc1ccc2c(c1)CNCCC2)c1cc(Cl)cc2[nH]ncc12 was run?
**A.** 5.49

**Q.** CC(C)n1ncc2c(C(=O)Nc3ccc4c(c3)CNC4)cc(Cl)cc21 was tested. Which pIC50 did it give?
**A.** 4.74

**Q.** NCc1cccc(NC(=O)c2cc(Cl)cc3c2cnn3CC2CC2)c1 was tested. Which pIC50 did it give?
**A.** 4.17

**Q.** O=C(Nc1ccc2c(c1)CNC2)c1cccc2[nH]c(=O)[nH]c12 was tested. Which pIC50 did it give?
**A.** 5.83

**Q.** How did the pIC50 turn out when O=C(Nc1ccc2c(c1)CNC2)c1cc(Cl)cc2c1CCC2 was run?
**A.** 4.64

**Q.** How did the pIC50 turn out when O=C(Nc1ccc2c(c1)CNC2)c1cc(F)cc(-c2cn[nH]c2)c1 was run?
**A.** 6.16

**Q.** COc1cc(C#N)cc([C@H](Nc2ccc3c(c2)CNC3)C(=O)NCC(F)F)c1 was tested. Which pIC50 did it give?
**A.** 6.61

**Q.** With N=C(N)NCCc1ccc(NC(=O)Oc2ccccc2)cc1 as the compound, how does the pIC50 read?
**A.** 4.14

**Q.** Cc1c(C(=O)Nc2cc(-c3cccnc3)ccn2)cc(C2CC2)n1C was tested. Which pIC50 did it give?
**A.** 4.89

**Q.** How did the pIC50 turn out when CNC(=O)[C@H](Nc1cc(Cl)cc2[nH]ncc12)c1ccc2c(c1)CNC2 was run?
**A.** 4.05

**Q.** With C=Cc1cc2c(cc1NC(=O)c1cc(F)cc3[nH]ncc13)CNC2 as the compound, how does the pIC50 read?
**A.** 6.31

**Q.** How did the pIC50 turn out when O=C(Nc1ccc2c(n1)CNC2)c1cc(Cl)cc2[nH]ncc12 was run?
**A.** 4.45

**Q.** O=C(Nc1cc2c(c(C3=CCOCC3)c1)CNC2)c1cc(F)cc2[nH]ncc12 was tested. Which pIC50 did it give?
**A.** 6.20

**Q.** How did the pIC50 turn out when O=C(Nc1ccc2c(c1)CNC2)c1cc(Br)cc2c1nc1n2CCCC1 was run?
**A.** 4.50

**Q.** How did the pIC50 turn out when CCCNC(=O)[C@H](Nc1ccc2c(c1)CNC2)c1cc(Cl)cc2[nH]ncc12 was run?
**A.** 6.45

**Q.** With O=C(NCC(F)F)[C@H](Nc1ccc2c(c1)CNC2)c1cc(F)cc2[nH]ncc12 as the compound, how does the pIC50 read?
**A.** 6.61

**Q.** With O=C(Nc1ccc2c(c1)CNC2)c1cccc2c1[C@]1(CCN(C(=O)OCc3ccccc3)C1)C(=O)N2 as the compound, how does the pIC50 read?
**A.** 5.45

**Q.** How did the pIC50 turn out when NCc1cccc(NC(=O)c2cc(Cl)cc(CN)c2)c1 was run?
**A.** 5.01

**Q.** With O=C1c2c(O)ccc([N+](=O)[O-])c2C(=O)c2c([N+](=O)[O-])ccc(O)c21 as the compound, how does the pIC50 read?
**A.** < 4.00

**Q.** With O=C(NCC(F)F)[C@H](Nc1ccc2c(c1)CNC2)c1cc(Cl)cc2[nH]ncc12 as the compound, how does the pIC50 read?
**A.** 5.58

**Q.** With N#Cc1cc(Cl)cc([C@H](C#N)Nc2ccc3c(c2)CNC3)c1 as the compound, how does the pIC50 read?
**A.** 4.01

**Q.** With O=C(Nc1ccc2c(c1)CN[C@H]2CCO)c1cc(F)cc2[nH]ncc12 as the compound, how does the pIC50 read?
**A.** 5.78

**Q.** With O=C(Nc1ccc2c(c1)CNC2)c1ccc2[nH]cc(C3CCNCC3)c2c1 as the compound, how does the pIC50 read?
**A.** 4.94
